# Experiments:
# chickweed = assay: Test D postemergence; format: in vivo, Stellaria media; conditions: scale 0 to 100
# How it was run: (§1)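 Seeds were sown in silt loam and sprayed preemergence with test chemicals in a non-phytotoxic solvent mixture containing surfactant. For postemergence tests, plants grown in peat-based medium to 2 to 18 cm (1- to 4-leaf stage) were sprayed with the same formulation. Injury was rated visually against untreated controls after 14 to 21 d in a controlled growth environment.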
# buckwheat, wild = assay: Test D postemergence; format: in vivo, Polygonum convolvulus; conditions: scale 0 to 100
# How it was run: as §1
# pigweed = assay: Test C preemergence; format: in vivo, Amaranthus retroflexus; conditions: for Plant response rating (scale of 0 to 100 where 0 is no effect and 100 is complete control): Pigweed, preemergence; for Pigweed plant response rating (0 to 100): Preemergence, visual rating after 13 to 15 d
# How it was run: (§2)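 Pre: seeded into loam/sand, sprayed same time. Post: plants in peat moss–vermiculite mix with starter nutrients and dolomitic limestone, treated at 1- to 4-leaf stage (2 to 18 cm). Formulation: non-phytotoxic solvent blend plus surfactant.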
# canarygrass [1] = assay: Test D preemergence; format: in vivo, Phalaris minor; conditions: for Plant response rating (0 to 100), Canarygrass: 16 g ai/ha, 0 is no effect, 100 is complete control; for Plant response rating: Canarygrass: scale 0 to 100
# How it was run: as §1
# wheat, spring = assay: Test D postemergence; format: in vivo, Triticum aestivum; conditions: scale 0 to 100
# How it was run: as §1
# wheat, winter = assay: Test D postemergence; format: in vivo, Triticum aestivum; conditions: scale 0 to 100
# How it was run: as §1
# bluegrass = assay: Test D postemergence; format: in vivo, Poa annua; conditions: scale 0 to 100
# How it was run: as §1
# blackgrass = assay: Test C preemergence; format: in vivo, Alopecurus myosuroides; conditions: for Plant response rating (scale of 0 to 100 where 0 is no effect and 100 is complete control): Blackgrass, preemergence; for Blackgrass plant response rating (0 to 100): Preemergence, visual rating after 13 to 15 d
# How it was run: as §2
# ragweed = assay: Test A preemergence; format: in vivo, Ambrosia elatior; conditions: 0 to 100 scale (0 no effect, 100 complete control)
# How it was run: (§3)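 Visual 0–100 ratings (0 no effect, 100 complete control) made roughly 10 days after treatment, comparing greenhouse-grown plants to untreated controls. Formulated test chemicals, with surfactant, went either as directed soil spray at planting or onto 2–10 cm seedlings bearing one to two leaves.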
# oat, wild = assay: Test D postemergence; format: in vivo, Avena fatua; conditions: scale 0 to 100
# How it was run: as §1
# ryegrass, Italian = assay: Test A postemergence; format: in vivo, Lolium multiflorum; conditions: 0 to 100 scale (0 no effect, 100 complete control), approx. 10 d
# How it was run: as §3
# canarygrass [2] = assay: Test D postemergence; format: in vivo, Phalaris minor; conditions: scale 0 to 100
# How it was run: as §1
# galium = assay: Test D postemergence; format: in vivo, Galium aparine; conditions: scale 0 to 100
# How it was run: as §1
smiles,measurement,setting,value
Fc1ccc(-c2nc(OCC(F)(F)F)n(Cc3ccnc(C(F)(F)F)c3)n2)cc1 [Compound 30],Plant response rating: Chickweed,chickweed; 16 g ai/ha,70
same,Plant response rating: Chickweed,chickweed; 31 g ai/ha,80
same,Plant response rating: Chickweed,chickweed; 62 g ai/ha,100
same,Plant response rating: Chickweed,chickweed; 125 g ai/ha,100
same,"Plant response rating: Buckwheat, Wild","buckwheat, wild; 16 g ai/ha",70
same,"Plant response rating: Buckwheat, Wild","buckwheat, wild; 31 g ai/ha",70
same,"Plant response rating: Buckwheat, Wild","buckwheat, wild; 62 g ai/ha",85
same,"Plant response rating: Buckwheat, Wild","buckwheat, wild; 125 g ai/ha",85
same,Plant response rating (scale of 0 to 100 where 0 is no effect and 100 is complete control),pigweed; 125 g ai/ha,100
same,Plant response rating (scale of 0 to 100 where 0 is no effect and 100 is complete control),pigweed; 250 g ai/ha,100
same,Pigweed plant response rating (0 to 100),pigweed; 31 g ai/ha,100
same,Pigweed plant response rating (0 to 100),pigweed; 62 g ai/ha,100
same,"Plant response rating (0 to 100), Canarygrass",canarygrass [1],50
same,Plant response rating: Canarygrass,canarygrass [1]; 31 g ai/ha,70
same,Plant response rating: Canarygrass,canarygrass [1]; 62 g ai/ha,100
same,Plant response rating: Canarygrass,canarygrass [1]; 125 g ai/ha,100
same,"Plant response rating: Wheat, Spring","wheat, spring; 16 g ai/ha",25
same,"Plant response rating: Wheat, Spring","wheat, spring; 31 g ai/ha",30
same,"Plant response rating: Wheat, Spring","wheat, spring; 62 g ai/ha",35
same,"Plant response rating: Wheat, Spring","wheat, spring; 125 g ai/ha",45
same,"Plant response rating: Wheat, Winter","wheat, winter; 16 g ai/ha",15
same,"Plant response rating: Wheat, Winter","wheat, winter; 31 g ai/ha",15
same,"Plant response rating: Wheat, Winter","wheat, winter; 62 g ai/ha",25
same,"Plant response rating: Wheat, Winter","wheat, winter; 125 g ai/ha",35
same,Plant response rating: Bluegrass,bluegrass; 16 g ai/ha,65
same,Plant response rating: Bluegrass,bluegrass; 31 g ai/ha,70
same,Plant response rating: Bluegrass,bluegrass; 62 g ai/ha,75
same,Plant response rating: Bluegrass,bluegrass; 125 g ai/ha,80
same,Plant response rating (scale of 0 to 100 where 0 is no effect and 100 is complete control),blackgrass; 125 g ai/ha,90
same,Plant response rating (scale of 0 to 100 where 0 is no effect and 100 is complete control),blackgrass; 250 g ai/ha,90
same,Blackgrass plant response rating (0 to 100),blackgrass; 31 g ai/ha,60
same,Blackgrass plant response rating (0 to 100),blackgrass; 62 g ai/ha,80
same,"Plant response rating, Ragweed",ragweed; 125 g ai/ha,80
same,"Plant response rating, Ragweed","ragweed; 500 g ai/ha, approx. 10 d",80
same,"Plant response rating: Oat, Wild","oat, wild; 16 g ai/ha",40
same,"Plant response rating: Oat, Wild","oat, wild; 31 g ai/ha",40
same,"Plant response rating: Oat, Wild","oat, wild; 62 g ai/ha",65
same,"Plant response rating: Oat, Wild","oat, wild; 125 g ai/ha",75
same,"Plant response rating, Ryegrass, Italian","ryegrass, Italian; 125 g ai/ha",50
same,"Plant response rating, Ryegrass, Italian","ryegrass, Italian; 500 g ai/ha",80
same,Plant response rating: Canarygrass,canarygrass [2]; 16 g ai/ha,55
same,Plant response rating: Canarygrass,canarygrass [2]; 31 g ai/ha,65
same,Plant response rating: Canarygrass,canarygrass [2]; 62 g ai/ha,75
same,Plant response rating: Canarygrass,canarygrass [2]; 125 g ai/ha,80
same,Plant response rating: Galium,galium; 16 g ai/ha,70
same,Plant response rating: Galium,galium; 31 g ai/ha,75
same,Plant response rating: Galium,galium; 62 g ai/ha,80
same,Plant response rating: Galium,galium; 125 g ai/ha,85
FC(F)(F)COc1nc(-c2ccccc2)nn1Cc1ccnc(C(F)(F)F)c1 [Compound 24],Plant response rating: Chickweed,chickweed; 16 g ai/ha,55
same,Plant response rating: Chickweed,chickweed; 31 g ai/ha,60
same,Plant response rating: Chickweed,chickweed; 62 g ai/ha,70
same,Plant response rating: Chickweed,chickweed; 125 g ai/ha,90
same,"Plant response rating: Buckwheat, Wild","buckwheat, wild; 16 g ai/ha",50
same,"Plant response rating: Buckwheat, Wild","buckwheat, wild; 31 g ai/ha",55
same,"Plant response rating: Buckwheat, Wild","buckwheat, wild; 62 g ai/ha",60
same,"Plant response rating: Buckwheat, Wild","buckwheat, wild; 125 g ai/ha",70
same,Plant response rating (scale of 0 to 100 where 0 is no effect and 100 is complete control),pigweed; 125 g ai/ha,100
same,Plant response rating (scale of 0 to 100 where 0 is no effect and 100 is complete control),pigweed; 250 g ai/ha,100
same,Pigweed plant response rating (0 to 100),pigweed; 31 g ai/ha,100
same,Pigweed plant response rating (0 to 100),pigweed; 62 g ai/ha,100
same,"Plant response rating (0 to 100), Canarygrass",canarygrass [1],55
same,Plant response rating: Canarygrass,canarygrass [1]; 31 g ai/ha,50
same,Plant response rating: Canarygrass,canarygrass [1]; 62 g ai/ha,60
same,Plant response rating: Canarygrass,canarygrass [1]; 125 g ai/ha,75
same,"Plant response rating: Wheat, Spring","wheat, spring; 16 g ai/ha",15
same,"Plant response rating: Wheat, Spring","wheat, spring; 31 g ai/ha",15
same,"Plant response rating: Wheat, Spring","wheat, spring; 62 g ai/ha",25
same,"Plant response rating: Wheat, Spring","wheat, spring; 125 g ai/ha",15
same,"Plant response rating: Wheat, Winter","wheat, winter; 16 g ai/ha",15
same,"Plant response rating: Wheat, Winter","wheat, winter; 31 g ai/ha",15
same,"Plant response rating: Wheat, Winter","wheat, winter; 62 g ai/ha",20
same,"Plant response rating: Wheat, Winter","wheat, winter; 125 g ai/ha",20
same,Plant response rating: Bluegrass,bluegrass; 16 g ai/ha,15
same,Plant response rating: Bluegrass,bluegrass; 31 g ai/ha,35
same,Plant response rating: Bluegrass,bluegrass; 62 g ai/ha,60
same,Plant response rating: Bluegrass,bluegrass; 125 g ai/ha,70
same,Plant response rating (scale of 0 to 100 where 0 is no effect and 100 is complete control),blackgrass; 125 g ai/ha,90
same,Plant response rating (scale of 0 to 100 where 0 is no effect and 100 is complete control),blackgrass; 250 g ai/ha,90
same,Blackgrass plant response rating (0 to 100),blackgrass; 31 g ai/ha,10
same,Blackgrass plant response rating (0 to 100),blackgrass; 62 g ai/ha,60
same,"Plant response rating, Ragweed","ragweed; 500 g ai/ha, approx. 10 d",40
same,"Plant response rating: Oat, Wild","oat, wild; 16 g ai/ha",35
same,"Plant response rating: Oat, Wild","oat, wild; 31 g ai/ha",45
same,"Plant response rating: Oat, Wild","oat, wild; 62 g ai/ha",50
same,"Plant response rating: Oat, Wild","oat, wild; 125 g ai/ha",55
same,"Plant response rating, Ryegrass, Italian","ryegrass, Italian; 125 g ai/ha",30
same,"Plant response rating, Ryegrass, Italian","ryegrass, Italian; 500 g ai/ha",60
same,Plant response rating: Canarygrass,canarygrass [2]; 16 g ai/ha,45
same,Plant response rating: Canarygrass,canarygrass [2]; 31 g ai/ha,55
same,Plant response rating: Canarygrass,canarygrass [2]; 62 g ai/ha,60
same,Plant response rating: Canarygrass,canarygrass [2]; 125 g ai/ha,70
same,Plant response rating: Galium,galium; 16 g ai/ha,55
same,Plant response rating: Galium,galium; 31 g ai/ha,70
same,Plant response rating: Galium,galium; 62 g ai/ha,65
same,Plant response rating: Galium,galium; 125 g ai/ha,75

# Reference: patent US10681909B2, “Herbicidal triazoles” (FMC Corporation, priority 2014, dated 2020)
